According to patent US20240033264A1, “CDK INHIBITORS” (QILU REGOR THERAPEUTICS INC., priority 2020, published 2024):

How the values were obtained:
CDK2/CyclinE1 = CDK2/CyclinE1 (Homo sapiens (Human), UniProt P24941); test: Assay for inhibition of CDK2/CyclinE1 (Caliper microfluidic kinase assay); format: biochemical; conditions: summary statement
Method: The CDK2 enzyme assay for IC50 determination was performed as follows. Microfluidic kinase detection technology (Caliper) was used to monitor the phosphorylation of peptide substrate by CDK2/CyclinE1. The total reaction volume was 15 μL containing buffer A (100 mM HEPES (pH 7.5), 0.1% BSA, 0.01% Triton X-100, 1 mM DTT, 10 mM MgCl2, 10 μM Sodium Orthovanadate, 10 μM Beta-Glycerophosphate), 100 μM ATP, 5 nM CDK2/CyclinE1 (SignalChem, C29-18G), 5 μM FL-18 (5-FAM-QSPKKG-NH2), and the test compound at appropriate dilutions in DMSO. All components were added to the 384-well plate (Corning, 4514), and incubate at Room Temperature for 3 hours. The reaction was terminated by addition of 15 μL Stop Buffer (180 mM HEPES (pH 7.5), 20 mM EDTA, Coating-3 reagent (PerkinElmer, 760050)). The plate was loaded on Caliper EZ Reader (EZ Reader II, PerkinElmer, HD-4HYSG2772), and the reaction mixtures including substrate and product were sipped into the microfluidic chip for separation and detection. The IC50 values of the test compound were determined by fitting the inhibition curves by 4 parameter sigmoidal dose-response model using the Xlfit5/GraphPad Prism 5 software.

CDK6/CyclinD3 = CDK6/CyclinD3 (Homo sapiens (Human), UniProt Q00534); test: Assay for inhibition of CDK6/CyclinD3 (Caliper microfluidic kinase assay); format: biochemical; conditions: summary statement
Sequence of CDK6/CyclinD3 (Q00534 whole entry): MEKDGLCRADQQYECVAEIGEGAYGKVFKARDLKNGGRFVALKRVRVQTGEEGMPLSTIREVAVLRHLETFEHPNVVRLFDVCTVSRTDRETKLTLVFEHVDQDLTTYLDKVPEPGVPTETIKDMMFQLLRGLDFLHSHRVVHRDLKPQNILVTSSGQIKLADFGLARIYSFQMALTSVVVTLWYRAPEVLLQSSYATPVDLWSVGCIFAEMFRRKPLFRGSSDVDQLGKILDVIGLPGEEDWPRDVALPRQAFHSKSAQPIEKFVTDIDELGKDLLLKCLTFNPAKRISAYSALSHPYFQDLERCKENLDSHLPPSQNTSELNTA
Sequence of CDK6/CyclinD3 (P30281 whole entry partner): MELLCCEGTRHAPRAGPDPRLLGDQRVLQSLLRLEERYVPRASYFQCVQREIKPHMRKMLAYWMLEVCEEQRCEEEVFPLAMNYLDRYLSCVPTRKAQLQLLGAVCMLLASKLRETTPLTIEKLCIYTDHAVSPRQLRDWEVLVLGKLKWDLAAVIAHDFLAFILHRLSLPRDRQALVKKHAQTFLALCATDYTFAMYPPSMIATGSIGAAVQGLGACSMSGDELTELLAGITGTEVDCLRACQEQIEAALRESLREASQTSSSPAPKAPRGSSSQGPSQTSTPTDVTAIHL
Method: (§1) The CDK6 enzyme assay for IC50 determination was performed as follows. Microfluidic kinase detection technology (Caliper) was used to monitor the phosphorylation of peptide substrate by CDK6/CyclinD3. The total reaction volume is 15 μL containing buffer A (100 mM HEPES (pH 7.5), 0.1% BSA, 0.01% Triton X-100, 1 mM DTT, 10 mM MgCl2, 10 μM Sodium Orthovanadate, 10 μM Beta-Glycerophosphate), 300 μM ATP, 2 nM CDK6/CyclinD3 (Carna, 04-107), 1 μM FL-34 (5-FAM-[…]), and the test compound at appropriate dilutions in DMSO. All components were added to the 384-well plate (Corning, 4514), and incubated at Room Temperature for 3 hours. The reaction was terminated by addition of 15 μL Stop Buffer (180 mM HEPES (pH 7.5), 20 mM EDTA, Coating-3 reagent (PerkinElmer, 760050)). The plate was then loaded on Caliper EZ Reader (EZ Reader II, PerkinElmer, HD-4HYSG2772), and the reaction mixtures including substrate and product were sipped into the microfluidic chip for separation and detection. The IC50 values of the test compound were determined by fitting the inhibition curves by 4 parameter sigmoidal dose-response model using the Xlfit5/GraphPad Prism 5 software.

T47D breast cancer cells = test: Anti-proliferation assay in T47D cell (Cyquant); format: cell-based, human; conditions: for IC50: Homo sapiens, T47D, 144 h, anti-proliferation, day 6 after compound addition
Text: T47D is a human breast cancer cell line commonly used in biomedical research involving the hormonal expression of cancer cells. T47D cells are distinct from other human breast cancer cells in that their progesterone receptors (PR) are not regulated by estradiol, a hormone that is abundant within the cells themselves. T47D cells have been employed in studies of the effects of progesterone on breast cancer and the corresponding transcriptional regulation caused by introduced drugs. The cells have been noted to be extremely resistant to estrogens and antiestrogens.
T47D breast cancer cells from American Type Culture Collection (ATCC, HTB-133) were plated at 3000 cells/well in 96-well plates, and were incubated in RPMI 1640 medium (Gibco, 31800105) with 10% Fetal Bovine Serum (FBS, Biowest, FB-1058) at 37° C., 5% CO2. After overnight incubation, baseline values were measured of the samples from one plate using Cyquant reagent (Invitrogen, C35011) following manufacturer's recommendations. Cells were incubated with the detection reagent for 1 hour at 37° C., and then the fluorescence was measured with excitation at 485 nm and emission at 535 nm using Spectra Max M5 (Molecular Devices, HD-4HYSG3196). Other plates were dosed with compounds at a ten-point dose concentration from 10 μM to 0.51 nM in a 3-fold dilution scheme. On day 6 after compound addition, Cyquant reagent was added and the fluorescence was measured using Spectra Max M5. The IC50 values of the test compound's anti-proliferation activity were determined from the baseline subtracted viability readout curve using Xlfit5/GraphPad Prism 5 software.

CDK4/CyclinD1 = CDK4/CyclinD1 (Homo sapiens (Human), UniProt P11802); test: Assay for inhibition of CDK4/CyclinD1 (Caliper microfluidic kinase assay); format: biochemical; conditions: summary statement
Sequence of CDK4/CyclinD1 (P11802 whole entry): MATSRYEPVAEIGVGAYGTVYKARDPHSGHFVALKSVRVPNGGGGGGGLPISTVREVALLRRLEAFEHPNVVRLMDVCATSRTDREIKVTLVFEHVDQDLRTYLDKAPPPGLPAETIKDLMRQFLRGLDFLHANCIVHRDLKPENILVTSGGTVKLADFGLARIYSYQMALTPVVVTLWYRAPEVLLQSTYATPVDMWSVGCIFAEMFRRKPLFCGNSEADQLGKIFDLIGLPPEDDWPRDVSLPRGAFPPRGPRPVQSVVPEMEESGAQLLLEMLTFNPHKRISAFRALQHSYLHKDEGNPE
Sequence of CDK4/CyclinD1 (P24385 whole entry partner): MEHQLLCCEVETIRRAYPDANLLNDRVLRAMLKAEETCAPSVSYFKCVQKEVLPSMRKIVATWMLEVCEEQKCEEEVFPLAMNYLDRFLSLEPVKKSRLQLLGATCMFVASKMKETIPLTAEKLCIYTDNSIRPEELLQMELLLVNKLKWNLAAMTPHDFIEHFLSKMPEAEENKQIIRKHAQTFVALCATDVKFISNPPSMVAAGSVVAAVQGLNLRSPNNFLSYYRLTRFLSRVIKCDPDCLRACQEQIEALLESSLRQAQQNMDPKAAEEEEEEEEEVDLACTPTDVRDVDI
Method: as §1, with “The CDK4” for “The CDK6”, “by CDK4/CyclinD1.” for “by CDK6/CyclinD3.”, “volume was” for “volume is”, “Beta-Glycerophosphate), 200” for “Beta-Glycerophosphate), 300”, “ATP, 1” for “ATP, 2”, “nM CDK4/CyclinD1 (Thermofisher, PR8064A),” for “nM CDK6/CyclinD3 (Carna, 04-107),”

[1] = Brain penetration (stated in summary, no method); conditions: summary statement
[2] = test system: Phosphorylation of Retinoblastoma Protein (pRb) Ser807/811 in T47D cell; test: Inhibition of phosphorylation of retinoblastoma protein (pRb) in T47D cell (ELISA); format: cell-based; conditions: Homo sapiens, 24 hours incubation, read-out: Phospho T47D Ser807 IC50
Method: T47D breast cancer cells from American Type Culture Collection (ATCC, HTB-133) were plated at 40,000 cells/well in 96-well plates, and were incubated in RPMI 1640 medium (Gibco, 31800105) with 10% Fetal Bovine Serum (FBS, Biowest, FB-1058). Cells were then allowed to adhere overnight at 37° C., 5% CO2. The following day, compounds were titrated in a 3-fold dilution scheme, and the highest compound concentration tested was […]. After 24 hours incubation with compounds, cells were lysed in ice-cold lysis buffer containing phosphatase inhibitor cocktail and 1 mM PMSF. Cell lysates (50 μL/well) were then transferred to ELISA plates (pRb Ser807/811 ELISA kit, Cell Signaling, 13152 or pRb Ser780 ELISA kit, Cell Signaling, 13016)). Plates were incubated overnight at 4° C., with constant slow speed shaking. After incubation, plates were washed following manufacturer's recommendations, and then 100 μL reconstituted detection antibody was added to each well and incubated for 1 hour at 37° C. After incubation, plates were washed, and then 100 μL reconstituted HRP-linked secondary antibody was added to each well and incubated for 30 mins at 37° C. […] Plates were read on the Envision plate reader (PerkinElmer, 2104-0010) using the 96-well […] mode. IC50 values were calculated using 4 parameter sigmoidal dose-response model of Xlfit5/GraphPad Prism 5 software.

CC(C)c1cnn2ccc(-c3ccnc(Nc4ccc(N5CC[C@H](N(C)C)CC5=O)cn4)n3)cc12 [Compound A]
inhibition of CDK2 (in words) (CDK2/CyclinE1): actively inhibits | inhibition of CDK6 (in words) (CDK6/CyclinD3): actively inhibits | anti-proliferation activities (in words) (T47D breast cancer cells; summary statement): strong | inhibition of CDK4 (in words) (CDK4/CyclinD1): actively inhibits

CC(C)N1CCN(c2ccc(Nc3nccc(-c4cc5c(ncn5C(C)C)c(F)n4)n3)nc2)CC1 [Compound B]
selectivity of CDK4 inhibition (in words) (CDK4/CyclinD1): selectively inhibit | brain penetration (in words) [1]: excellent

CC(C)c1cnn2ccc(-c3ccnc(Nc4ccc(N5CCC(N(C)C)CC5=O)cn4)n3)cc12 (centres unmarked) [Synthetic Example 1]
IC50 (T47D breast cancer cells): < 100 nM

CC(C)c1cnn2ccc(-c3ccnc(Nc4ccc(N5CC[C@@H](N(C)C)CC5=O)cn4)n3)cc12 [Synthetic Example 2]
IC50 (T47D breast cancer cells): < 100 nM

CC(C)c1cnn2ccc(-c3ccnc(Nc4ccc(N5CC[C@H](N(C)C)CC5=O)cn4)n3)cc12 [Synthetic Example 3]
IC50 (T47D breast cancer cells): < 100 nM | IC50 [2]: < 100 nM

CC(C)N1CCN(c2ccc(Nc3nccc(-c4cc5c(ncn5C(C)C)c(F)n4)n3)nc2)CC1 [Synthetic Example 4]
IC50 (T47D breast cancer cells): < 100 nM
